In PMC5767129 (European journal of pharmacology, 2017):

How the values were obtained:
human P2X7 receptor [1] = molecular target: T1, human P2X7 receptor (Homo sapiens, UniProt Q99572); conditions: carbon-11 labeled radioligand; ref Gao et al., 2015; Ory et al., 2016; cited from earlier work
T1 sequence (Q99572 1-595): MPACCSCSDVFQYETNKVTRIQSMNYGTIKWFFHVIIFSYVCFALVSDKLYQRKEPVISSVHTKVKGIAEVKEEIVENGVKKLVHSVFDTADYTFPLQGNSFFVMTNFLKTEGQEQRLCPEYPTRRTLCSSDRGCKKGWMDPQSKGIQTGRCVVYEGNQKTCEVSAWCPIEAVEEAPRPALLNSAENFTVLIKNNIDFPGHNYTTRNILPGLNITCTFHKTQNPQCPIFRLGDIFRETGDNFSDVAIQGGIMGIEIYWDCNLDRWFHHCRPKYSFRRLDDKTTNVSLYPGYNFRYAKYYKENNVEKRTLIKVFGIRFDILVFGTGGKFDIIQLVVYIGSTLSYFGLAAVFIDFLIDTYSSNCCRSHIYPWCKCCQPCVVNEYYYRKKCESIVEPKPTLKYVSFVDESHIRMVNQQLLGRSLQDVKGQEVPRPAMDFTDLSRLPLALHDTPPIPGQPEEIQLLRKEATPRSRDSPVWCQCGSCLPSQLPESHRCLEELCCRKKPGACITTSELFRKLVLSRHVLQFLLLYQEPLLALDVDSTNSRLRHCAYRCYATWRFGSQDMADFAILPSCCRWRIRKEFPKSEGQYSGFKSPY

human P2X7 receptor [2] = molecular target: T1, human P2X7 receptor; assay: Radioligand competition binding assay using [^123I]TZ6019
human P2X7 receptor [3] = molecular target: T1, human P2X7 receptor; assay: Ethidium bromide uptake fluorescence assay; type: cell-based
human P2X7 receptor [4] = molecular target: T1, human P2X7 receptor; assay: Radioligand competition binding assay using [^3H]A804598
rodents P2X7 receptor = conditions: carbon-11 labeled radioligand; ref Gao et al., 2015; Ory et al., 2016; cited from earlier work
human P2X7 receptor [5] = molecular target: T1, human P2X7 receptor; assay: Radioligand saturation binding assay with [^123I]TZ6019
P2X7 receptor = molecular target: T2, P2X7 receptor (Mus musculus, UniProt Q9Z1M0); assay: In vitro autoradiography of P301S and wild type mouse brain slices; type: binding; conditions: for P2X7 receptor expression quantified by autoradiography: mean ± S.D., n = 3
T2 sequence (Q9Z1M0 1-595): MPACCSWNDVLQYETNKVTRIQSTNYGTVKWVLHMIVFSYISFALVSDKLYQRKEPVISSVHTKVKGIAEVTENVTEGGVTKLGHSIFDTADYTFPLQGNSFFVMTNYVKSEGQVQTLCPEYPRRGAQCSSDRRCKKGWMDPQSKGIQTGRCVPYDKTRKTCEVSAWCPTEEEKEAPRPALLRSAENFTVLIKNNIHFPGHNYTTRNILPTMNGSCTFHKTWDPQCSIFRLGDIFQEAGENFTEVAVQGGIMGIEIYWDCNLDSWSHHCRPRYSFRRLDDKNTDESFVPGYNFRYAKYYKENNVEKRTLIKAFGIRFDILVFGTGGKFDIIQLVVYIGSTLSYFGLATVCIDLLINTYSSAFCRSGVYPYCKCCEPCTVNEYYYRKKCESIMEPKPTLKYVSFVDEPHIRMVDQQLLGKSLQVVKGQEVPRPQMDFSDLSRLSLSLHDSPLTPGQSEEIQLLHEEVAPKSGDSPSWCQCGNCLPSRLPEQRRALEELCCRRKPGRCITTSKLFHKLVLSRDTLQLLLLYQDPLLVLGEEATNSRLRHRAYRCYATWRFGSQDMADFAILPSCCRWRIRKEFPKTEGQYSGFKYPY

For `CN1C(=O)CC[C@H]1C(=O)NCc1cccc(C(F)(F)F)c1Cl` [GSK1482160, reference compound], the “binding to human P2X7 receptor” value (human P2X7 receptor [1]) is given as “tight binding”, the IC50 (human P2X7 receptor [2]) is given as 4.3 ± 0.9 nM and the IC50 (human P2X7 receptor [3]) is given as 2.1 ± 0.3 nM. For the same compound, the IC50 (human P2X7 receptor [4]) was 8.65 ± 1 nM and the “binding to rodents P2X7 receptor” value (rodents P2X7 receptor) was “weak binding”.

Compound `O=C(NCc1cccc(C(F)(F)F)c1Cl)[C@@H]1CCC(=O)N1C/C=C/I` [[^123I]TZ6019] has a Kd (human P2X7 receptor [5]; read-out: Kd (saturation binding), HEK-293-hP2X7R cells, one-site fit, n = 3) of 19.3 ± 2.8 nM.

With `O=C(NCc1cccc(C(F)(F)F)c1Cl)[C@@H]1CCC(=O)N1C/C=C/I` [TZ6019, (S,E)-N-(2-chloro-3-(trifluoromethyl)benzyl)-1-(3-iodoallyl)-5-oxopyrrolidine-2-carboxamide] the IC50 (human P2X7 receptor [2]) was 9.49 ± 1.4 nM, the “fold lower binding potency than GSK1482160” value (human P2X7 receptor [3]; ratio of ethidium bromide assay IC50 values) was 5 fold and the IC50 (human P2X7 receptor [4]) was 12.9 ± 2 nM.

For `O=C(NCc1cccc(C(F)(F)F)c1Cl)[C@@H]1CCC(=O)N1C/C=C/[123I]` [[^123I]TZ6019], the “specific binding as fraction of total binding” value (human P2X7 receptor [5]; saturation binding, nonspecific defined with 100 µM GSK1482160) was “approximately 40%”, the “fold higher autoradiography binding in P301S than wild type mice” value (P2X7 receptor; Cortex) was 2.4 fold and the “P2X7 receptor expression quantified by autoradiography” value (“P2X7 receptor expression quantified” below) (P2X7 receptor; Cortex, P301S mice) was 330.53 ± 91.08 PSL/mm^2. For the same compound, the “P2X7 receptor expression quantified” value (P2X7 receptor; Cortex, Wild type mice) was 135.23 ± 32.55 PSL/mm^2, the “P2X7 receptor expression quantified” value (P2X7 receptor; Hippocampus, P301S mice, 9-month-old) was 255.05 ± 10.90 PSL/mm^2 and the “P2X7 receptor expression quantified” value (P2X7 receptor; Hippocampus, Wild type mice, 9-month-old) was 154.18 ± 16.14 PSL/mm^2. The “P2X7 receptor expression quantified” value (P2X7 receptor; Thalamus, P301S mice) was 337.98 ± 93.45 PSL/mm^2, the “P2X7 receptor expression quantified” value (P2X7 receptor; Thalamus, Wild type mice) was 187.41 ± 61.02 PSL/mm^2 and the “P2X7 receptor expression quantified” value (P2X7 receptor; Total brain, P301S mice) was 260.86 ± 48.93 PSL/mm^2. The “P2X7 receptor expression quantified” value (P2X7 receptor; Total brain, Wild type mice) was 193.05 ± 39.92 PSL/mm^2 and the “increase of binding in brain of P301S mice compared to wild type controls” value (P2X7 receptor; brain, n = 3, p = 0.04) was 35%.
